Patent publication US10604512B2, “3-(1H-indol-2-yl)-1H-indazoles and therapeutic uses thereof” (Samumed, LLC, priority 2015, dated 2020)

Tests used:
Format in all cases: cell-based
[1] = tested on: Wnt activity (Sp5-Luc reporter, TCF/LEF binding sites) in SW480 colon carcinoma cells; assay: Screening assay for Wnt activity: Sp5-Luc reporter gene assay in stably transduced SW480 colon carcinoma cells; settings: Homo sapiens, overnight incubation, 10-point curve from 10 μM
From the text: The screening assay for Wnt activity is described as follows. Reporter cell lines can be generated by stably transducing cancer cell lines (e.g., colon cancer) or primary cells (e.g., IEC-6 intestinal cells) with a lentiviral construct that includes a Wnt-responsive promoter driving expression of the firefly luciferase gene.
SW480 colon carcinoma cells were transduced with a lentiviral vector expressing luciferase with a human Sp5 promoter consisting of a sequence of eight TCF/LEF binding sites. SW480 cells stably expressing the Sp5-Luc reporter gene and a hygromycin resistance gene were selected by treatment with 150 μg/mL of hygromycin for 7 days. These stably transduced SW480 cells were expanded in cell culture and used for all further screening activities. Each compound was dissolved in DMSO as a 10 mM stock and used to prepare compound source plates. Serial dilution (1:3, 10-point dose-response curves starting from 10 μM) and compound transfer was performed using the ECHO 550 (Labcyte, Sunnyvale, Calif.) into 384-well white solid bottom assay plates (Greiner Bio-One) with appropriate DMSO backfill for a final DMSO concentration of 0.1%. For Sp5-Luc reporter gene assays, the cells were plated at 4,000 cells/well in 384-well plates with medium containing 1% fetal bovine serum and incubated overnight at 37° C. and 5% CO2. Following incubation, 20 μl of BrightGlo luminescence reagent (Promega) was added to each well of the 384-well assay plates. The plates were placed on an orbital shaker for 2 min and then luminescence was quantified using the Envision (Perkin Elmer) plate reader. Readings were normalized to DMSO only treated cells, and normalized activities were utilized for EC50 calculations using the dose-response log (inhibitor) vs. response variable slope (four parameters) nonlinear regression feature available in GraphPad Prism 5.0 (or Dotmatics). For EC50 of >10 μM, the percent inhibition at 10 μM is provided.

IL-6 = assay: Inhibition of IL-6 in LPS-stimulated THP-1 human monocyte cells (HTRF); settings: IL-6 inhibition, LPS-stimulated THP-1 cells, HTRF
Experimental: Human monocyte cell line (THP-1 cells; Catalog # TIB-202, ATCC, Manassas, Va.) were cultured in Roswell Park Memorial Institute (RPMI) 1640 Medium (Catalog #21870-100, Buffalo, N.Y.) with 1% L-glutamine, 1% HEPES, 1% Sodium Pyruvate, 2% Sodium Bicarbonate supplemented with 100 units/mL penicillin, 50 μg/mL streptomycin, 2-mercaptoethanol (0.05 mM) [basal medium] and 10% fetal bovine serum (Catalog #16140089, Life Technologies, Carlsbad, Calif.) at 37° C. and 5% CO2.
THP-1 cells were cultured in basal media with 1% FBS for 24 hours before the start of the assay. Each compound was dissolved in DMSO as a 10 mM stock and used to prepare compound source plates. Serial dilution (1:3, 10-point dose-response curves starting from 10 μM) and compound transfer was performed using the ECHO 550 (Labcyte, Sunnyvale, Calif.) into 384-well white low volume assay plates (Greiner Bio-One) with appropriate DMSO backfill for a final DMSO concentration of 0.1%. THP-1 cells were plated at 5000 cells/well in the 384-well plates and incubated at 37° C. for 2 h. 500 ng/mL of LPS was added after 2 hours and cells were incubated for another 22 hours at 37° C. Plates were spun in a centrifuge for 1 minute at […] and a mixture of anti-IL6 XL665, and anti-IL6 Cryptate diluted in reconstitution buffer (Cisbio Inc.) was added to each well. Following incubation for 3 hrs at room temperature, Homogeneous Time-Resolved Fluorescence (HTRF) was measured using the Envision (Perkin Elmer) at 665 nm and […]. The ratio of fluorescence at 665 nm to 620 nm was used as a readout for IL6 quantification. All samples were processed in duplicate. Readings were normalized to DMSO treated cells and normalized activities were utilized for EC50 calculations using the dose-response log (inhibitor) vs. response variable slope (four parameters) nonlinear regression feature available in GraphPad Prism 5.0 (or Dotmatics). For EC50 of >10 μM, the percent inhibition at 10 μM is provided.

SW480 colon cancer cells = assay: Cell viability assay (CellTiter-Blue) in SW480 colon cancer cells; settings: Homo sapiens, 96 h, four days, CellTiter-Blue
Experimental: Representative compounds were screened using the following assay procedure to assess the effect on cell viability as described below.
Each compound was dissolved in DMSO as a 10 mM stock and used to prepare compound source plates. Serial dilution (1:3, 8-point dose-response curves from 10 μM to 0.0045 μM) and compound transfer was performed using the ECHO 550 (Labcyte, Sunnyvale, Calif.) into 96-well clear bottom, black-walled plates (Corning-Costar).
Approximately 2×10^3 SW480 colon cancer cells were seeded into each well and allowed to incubate in the presence or absence of compound for four days at 37° C./5% CO2. Eight replicates of DMSO-treated cells served as controls and cells treated with compound were performed in duplicate.
After incubation, 20 μL of CellTiter-Blue (Promega) was added to each well allowed to incubate for approximately 3 hours. This reagent was a buffered solution which contains resazurin, metabolically active cells were able to reduce rezarurin (blue) into resorufin (pink) which was highly fluorescent. This measured fluorescence was used as a readout for cell viability.
After incubation, the plates were read at Ex 560 nm Em 590 nm (Cytation 3, BioTek). Dose-response curves were generated and EC50 concentration values were calculated using non-linear regression curve fit in the GraphPad Prism (San Diego, Calif.) or Dotmatics' Studies Software (Bishops Stortford, UK). For EC50 of >10 μM, the percent inhibition at 10 μM is provided.

[2] = tested on: Primary human fibroblasts derived from IPF patients (LL29 cells) treated with TGF-β1; assay: Inhibition of the fibrotic process: αSMA staining in TGF-β1-treated primary human fibroblasts from IPF patients (LL29 cells); settings: Fibroblast, 96 h, % αSMA-positive LL29 cells, TGF-β1 20 ng/mL, 4 days
From the text: Representative compounds were screened using primary human fibroblasts (derived from IPF patients) treated with TGF-β1 to determine their ability to inhibit the fibrotic process.
Primary human fibroblasts derived from IPF patients (LL29 cells) [^1Xiaoqiu Liu, et. al., “Fibrotic Lung Fibroblasts Show Blunted Inhibition by cAMP Due to Deficient cAMP Response Element-Binding Protein Phosphorylation”, Journal of Pharmacology and Experimental Therapeutics (2005), 315(2), 678-687; ^2Watts, K. L., et. al., “RhoA signaling modulates cyclin D1 expression in human lung fibroblasts; implications for idiopathic pulmonary fibrosis”, Respiratory Research (2006), 7(1), 88] were obtained from American Type Culture Collection (ATCC) and expanded in F12 medium supplemented with 15% Fetal Bovine Serum and Penicillin/Streptomycin.
Each compound was dissolved in DMSO as a 10 mM stock and used to prepare compound source plates. Serial dilution (1:2, 11-point dose-response curves from 10 μM to […]) and compound transfer was performed using the ECHO 550 (Labcyte, Sunnyvale, Calif.) into 384-well clear bottom assay plates (Greiner Bio-One) with appropriate DMSO backfill for a final DMSO concentration of 0.1%. LL29 cells are plated at 1,500 cells/well in 80 μL/well F12 medium supplemented with 1% Fetal Bovine Serum. One hour after addition of the cells, TGF-β1 (Peprotech; 20 ng/mL) was added to the plates to induce fibrosis (ref 1 and 2 above). Wells treated with TGF-β1 and containing DMSO were used as controls. Cells were incubated at 37° C. and 5% CO2 for 4 days. Following incubation for 4 days, SYTOX green nucleic acid stain (Life Technologies [Thermo Fisher Scientific]) was added to the wells at a final concentration of 1 μM and incubated at room temperature for 30 min. Cells were then fixed using 4% formaldehyde (Electron Microscopy Sciences), washed 3 times with PBS followed by blocking and permeabilization using 3% Bovine Serum Albumin (BSA; Sigma) and 0.3% Triton X-100 (Sigma) in PBS. Cells were then stained with antibody specific to α-smooth muscle actin (αSMA; Abcam) (ref 1 and 2 above) in 3% Bovine Serum Albumin (BSA; Sigma) and 0.3% Triton X-100 (Sigma) in PBS, and incubated overnight at 4° C. Cells were then washed 3 times with PBS, followed by incubation with Alexa Flor-647 conjugated secondary antibody (Life Technologies [Thermo Fisher Scientific]) and DAPI at room temperature for 1 hour. Cells were then washed 3 times with PBS and plates were sealed for imaging. αSMA staining was imaged by excitation at 630 nm and emission at 665 nm and quantified using the Compartmental Analysis program on the CellInsight CX5 (Thermo Scientific). Dead or apoptotic cells were excluded from analysis based on positive SYTOX green staining. % of total cells positive for αSMA were counted in each well and normalized to the average of 11 wells treated with TGF-β1 on the same plate using Dotmatics' Studies Software. The normalized averages (fold change over untreated) of 3 replicate wells for each compound concentration were used to create dose-responses curves and EC50 values were calculated using non-linear regression curve fit in the Dotmatics' Studies Software. For EC50 of >10 μM, the percent inhibition at 10 μM is provided.

EC50 [1] [nM]	EC50 (IL-6) [nM]	EC50 (SW480 colon cancer cells) [nM]	Compound	EC50 [2] [nM]
352	253	677	CC(C)Nc1cncc(-c2ccc3[nH]nc(-c4cc5c(N6CCN(C)CC6)cccc5[nH]4)c3c2)c1 [Compound 236, N-Isopropyl-5-(3-(4-(4-methylpiperazin-1-yl)-1H-indol-2-yl)-1H-indazol-5-yl)pyridin-3-amine]	761
664	15	1820	CCCCC(=O)Nc1cncc(-c2ccc3[nH]nc(-c4cc5c(N6CCN(C)CC6)cccc5[nH]4)c3c2)c1 [Compound 243, N-(5-(3-(4-(4-Methylpiperazin-1-yl)-1H-indol-2-yl)-1H-indazol-5-yl)pyridin-3-yl)pentanamide]	1270
291	99	743	CN1CCN(c2cccc3[nH]c(-c4n[nH]c5ccc(-c6cncc(CN7CCC(F)(F)C7)c6)cc45)cc23)CC1 [Compound 250, 5-(5-((3,3-Difluoropyrrolidin-1-yl)methyl)pyridin-3-yl)-3-(4-(4-methylpiperazin-1-yl)-1H-indol-2-yl)-1H-indazole]	364
40	180	111	Nc1cncc(-c2ccc3[nH]nc(-c4cc5c(-c6ccsc6)cccc5[nH]4)c3c2)c1 [Compound 283, 5-(3-(4-(Thiophen-3-yl)-1H-indol-2-yl)-1H-indazol-5-yl)pyridin-3-amine]	809
450	200	633	CN(C)c1cncc(-c2ccc3[nH]nc(-c4cc5c(-c6ccoc6)cccc5[nH]4)c3c2)c1 [Compound 315, 5-(3-(4-(Furan-3-yl)-1H-indol-2-yl)-1H-indazol-5-yl)-N,N-dimethylpyridin-3-amine]	4270
185	593	442	c1cc(-c2ccoc2)c2cc(-c3n[nH]c4ccc(-c5cncc(CN6CCCCC6)c5)cc34)[nH]c2c1 [Compound 323, 3-(4-(Furan-3-yl)-1H-indol-2-yl)-5-(5-(piperidin-1-ylmethyl)pyridin-3-yl)-1H-indazole]	728
182	475	470	FC1(F)CCN(Cc2cncc(-c3ccc4[nH]nc(-c5cc6c(-c7ccoc7)cccc6[nH]5)c4c3)c2)C1 [Compound 334, 5-(5-((3,3-Difluoropyrrolidin-1-yl)methyl)pyridin-3-yl)-3-(4-(furan-3-yl)-1H-indol-2-yl)-1H-indazole]	154
1230	732	1100	O=C(Nc1cncc(-c2ccc3[nH]nc(-c4cc5c(-c6cccs6)cccc5[nH]4)c3c2)c1)C1CCCC1 [Compound 358, N-(5-(3-(4-(Thiophen-2-yl)-1H-indol-2-yl)-1H-indazol-5-yl)pyridin-3-yl) cyclopentanecarboxamide]	21
474	370	3090	FC1(F)CCN(Cc2cncc(-c3ccc4[nH]nc(-c5cc6c(-c7cccs7)cccc6[nH]5)c4c3)c2)C1 [Compound 362, 5-(5-((3,3-Difluoropyrrolidin-1-yl)methyl)pyridin-3-yl)-3-(4-(thiophen-2-yl)-1H-indol-2-yl)-1H-indazole]	619
137	1290	303	CC(C)CC(=O)Nc1cncc(-c2ccc3[nH]nc(-c4cc5c(-c6cc(F)cc(NCCN(C)C)c6)cccc5[nH]4)c3c2)c1 [Compound 450, N-(5-(3-(4-(3-((2-(Dimethylamino)ethyl)amino)-5-fluorophenyl)-1H-indol-2-yl)-1H-indazol-5-yl)pyridin-3-yl)-3-methylbutanamide]	191
263	244	640	Cc1ccncc1-c1ccc2[nH]nc(-c3cc4c(-c5cc(F)cc(NCCN(C)C)c5)cccc4[nH]3)c2c1 [Compound 453, N^1-(3-Fluoro-5-(2-(5-(4-methylpyridin-3-yl)-1H-indazol-3-yl)-1H-indol-4-yl)phenyl)-N^2,N^2-dimethylethane-1,2-diamine]	1760
